Experimental data taken from patent US20100010037A1, “1H-PYRROLO[2,3-B]PYRIDINE DERIVATIVES USEFUL AS HSP90 INHIBITORS” (VERNALIS (R&D) LTD., priority 2006, published 2010).

Key:
human full-length HSP90 = molecular target: T1, human full-length HSP90 (Homo sapiens, UniProt P08238); assay: Fluorescence polarization assay (competitive displacement of fluorescein-labelled probe from HSP90); format: binding; conditions: human full-length HSP90 200 nM, probe 80 nM; read-out: FP IC50 (activity in the fluorescence polarization assay)
T1 construct: E. coli expressed human full-length HSP90 protein; made in house; host or cells: E. coli
T1 sequence (P08238 whole entry): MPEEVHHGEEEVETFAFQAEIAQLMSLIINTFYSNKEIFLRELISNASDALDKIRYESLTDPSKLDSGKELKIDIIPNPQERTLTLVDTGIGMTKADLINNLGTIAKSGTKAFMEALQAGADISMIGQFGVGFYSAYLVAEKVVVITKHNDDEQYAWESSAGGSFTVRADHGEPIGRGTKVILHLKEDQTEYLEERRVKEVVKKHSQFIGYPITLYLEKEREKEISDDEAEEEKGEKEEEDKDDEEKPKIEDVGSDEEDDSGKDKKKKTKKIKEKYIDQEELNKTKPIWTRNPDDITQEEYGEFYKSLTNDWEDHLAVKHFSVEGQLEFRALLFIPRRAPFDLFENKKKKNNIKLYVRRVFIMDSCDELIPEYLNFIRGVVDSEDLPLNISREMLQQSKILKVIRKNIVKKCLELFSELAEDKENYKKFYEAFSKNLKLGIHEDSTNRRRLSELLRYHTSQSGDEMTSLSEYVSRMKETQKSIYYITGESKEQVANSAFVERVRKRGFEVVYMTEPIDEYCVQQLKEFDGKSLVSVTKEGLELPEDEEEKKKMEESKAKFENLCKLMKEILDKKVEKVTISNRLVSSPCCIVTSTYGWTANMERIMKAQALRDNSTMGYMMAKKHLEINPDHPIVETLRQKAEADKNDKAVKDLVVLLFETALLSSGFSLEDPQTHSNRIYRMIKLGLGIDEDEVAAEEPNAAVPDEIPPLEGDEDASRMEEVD
Source text: Fluorescence Polarization Assay
Fluorescence polarization {also known as fluorescence anisotropy} measures the rotation of a fluorescing species in solution, where the larger molecule the more polarized the fluorescence emission. When the fluorophore is excited with polarized light, the emitted light is also polarized. The molecular size is proportional to the polarization of the fluorescence emission.
The fluoroscein-labelled probe—
binds to HSP90 {full-length human, full-length yeast or N-terminal domain HSP90} and the anisotropy {rotation of the probe:protein complex} is measured.
Test compound is added to the assay plate, left to equilibrate and the anisotropy measured again. Any change in anisotropy is due to competitive binding of compound to HSP90, thereby releasing probe.
Chemicals are of the highest purity commercially available and all aqueous solutions are made up in AR water. • 1) Costar 96-well black assay plate #3915 • 2) Assay buffer of (a)100 mM Tris pH7.4; (b) 20 mM KCl; (c) 6 mM MgCl2. Stored at room temperature. • 3) BSA (bovine serum albumen) 10 mg/ml (New England Biolabs # B9001S) • 4) 20 mM probe in 100% DMSO stock concentration. Stored in the dark at RT. Working concentration is 200 nM diluted in AR water and stored at 4° C. Final concentration in assay 80 nM. • 5) E. coli expressed human full-length HSP90 protein, purified >95% (see, e.g., Panaretou et al., 1998) and stored in 50 μL aliquots at −80° C.
Protocol • 1) Add 100 μl 1× buffer to wells 11A and 12A (=FP BLNK) • 2) Prepare assay mix—all reagents are kept on ice with a lid on the bucket as the probe is light-sensitive.
• 3) Aliquot 100 μl assay mix to all other wells • 4) Seal plate and leave in dark at room temp for 20 minutes to equilibrate
Compound Dilution Plate—1×3 dilution series • 1) In a clear 96-well v-bottom plate—{# VWR 007/008/257} add 10 μl 100% DMSO to wells B1 to H11 • 2) To wells A1 to A11 add 17.5 μl 100% DMSO • 3) Add 2.5 μl cpd to A1. This gives 2.5 mM {50×} stock cpd—assuming cpds 20 mM. • 4) Repeat for wells A2 to A10. Control in columns 11 and 12. • 5) Transfer 5 μl from row A to row B—not column 12. Mix well. • 6) Transfer 5 μl from row B to row C. […] In column 11 {provides standard curve} only add compound B11-H11. Add 2 μl of 100 mM standard cpd to wells B12-H12 {is positive control} • 13) The Z′ factor is calculated from zero controls and positive wells. It typically gives a value of 0.7-0.9.

[1] = Growth inhibition assay: cytotoxicity by sulforhodamine B (SRB) assay; format: cell-based; conditions: SRB stain, absorbance at 540 nm; cell line not named
Description: A growth inhibition assay was also employed for the evaluation of candidate HSP90 inhibitors:
Assessment of Cytotoxicity by Sulforhodamine B (SRB) Assay: Calculation of 50% Inhibitory Concentration (IC50).
Day 1 • 1) Determine cell number by haemocytometer. • 2) Using an 8 channel multipipettor, add 160 μl of the cell suspension (3600 cells/well or 2×10^4 cells/ml) to each well of a 96-well microtitre plate. • 3) Incubate overnight at 37° C. in a CO2 incubator. […]
Day 6 • 8) Tip off medium into sink and immerse plate slowly into 10% ice cold trichloroacetic acid (TCA). […] Leave for 15 mins. • 12) Wash off unbound SRB stain with four washes of 1% acetic acid. • 13) Dry plates in incubator. • 14) Solubilise SRB using 100 μl of 10 mM Tris base and put plates on plate shaker for 5 mins. • 15) Determine absorbance at 540 nm using a plate reader. Calculate mean absorbance for quadruplicate wells and express as a percentage of value for control, untreated wells. • 16) Plot % absorbance values versus log drug concentration and determine the IC50.

IC50 (human full-length HSP90) [nM]	Compound	IC50 [1] [nM]
< 1000	Cc1ccc(-c2ccnc3[nH]cc(C#N)c23)c(C)c1 [Example 1, 4-(2,4-Dimethyl-phenyl)-1H-pyrrolo[2,3-b]pyridine-3-carbonitrile]	
< 1000	N#Cc1c[nH]c2nccc(-c3ccc(Cl)cc3Cl)c12 [Example 2, 4-(2,4-Dichloro-phenyl)-1H-pyrrolo[2,3-b]pyridine-3-carbonitrile]	
< 1000	N#Cc1c[nH]c2nc(Cl)cc(-c3ccc(Cl)cc3Cl)c12 [Example 3, 6-Chloro-4-(2,4-dichloro-phenyl)-1H-pyrrolo[2,3-b]pyridine-3-carbonitrile]	
< 1000	COc1cc(-c2ccnc3[nH]cc(C#N)c23)c(Cl)cc1Cl [Example 4, 4-(2,4-Dichloro-5-methoxy-phenyl)-1H-pyrrolo[2,3-b]pyridine-3-carbonitrile]	
< 1000	COc1cc(-c2cc(Cl)nc3[nH]cc(C#N)c23)c(Cl)cc1Cl [Example 5, 6-Chloro-4-(2,4-dichloro-5-methoxy-phenyl)-1H-pyrrolo[2,3-b]pyridine-3-carbonitrile]	< 50000
1000 to 10000	Cc1ccc(-c2ccnc3[nH]cc(Br)c23)c(C)c1 [Example 6]	
< 1000	Cc1ccc(-c2ccnc3[nH]cc(C=O)c23)c(C)c1 [Example 7, 4-(2,4-Dimethyl-phenyl)-1H-pyrrolo[2,3-b]pyridine-3-carbaldehyde]	
> 10000	CCN(CC)CCOc1cc(-c2ccccc2)c2c(C#N)c[nH]c2n1 [Example 9, 6-(2-Diethylamino-ethoxy)-4-phenyl-1H-pyrrolo[2,3-b]pyridine-3-carbonitrile]	
1000 to 10000	CCN(CC)CCOc1cc(-c2ccc(Cl)cc2Cl)c2c(C#N)c[nH]c2n1 [Example 10, 4-(2,4-Dichloro-phenyl)-6-(2-diethylamino-ethoxy)-1H-pyrrolo[2,3-b]pyridine-3-carbonitrile]	
1000 to 10000	N#Cc1c[nH]c2nc(OCCCN3CCCCC3)cc(-c3ccc(Cl)cc3Cl)c12 [Example 11, 4-(2,4-Dichloro-phenyl)-6-(3-piperidin-1-yl-propoxy)-1H-pyrrolo[2,3-b]pyridine-3-carbonitrile]	
1000 to 10000	N#Cc1c[nH]c2nccc(-c3cccc(O)c3)c12 [Example 12, 4-(3-Hydroxy-phenyl)-1H-pyrrolo[2,3-b]pyridine-3-carbonitrile]	
1000 to 10000	CCN(CC)CCOc1cccc(-c2ccnc3[nH]cc(C#N)c23)c1 [Example 13, 4-[3-(2-Diethylamino-ethoxy)-phenyl]-1H-pyrrolo[2,3-b]pyridine-3-carbonitrile]	
< 1000	N#Cc1c[nH]c2nc(Cl)cc(-c3cccc(O)c3)c12 [Example 14, 6-Chloro-4-(3-hydroxy-phenyl)-1H-pyrrolo[2,3-b]pyridine-3-carbonitrile]	
< 1000	COc1cc(-c2ccccc2)c2c(C#N)c[nH]c2n1 [Example 15, 6-methoxy-4-(-phenyl)-1H-pyrrolo[2,3-b]pyridine-3-carbonitrile]	
